Like-named read-outs stand apart in the source and are kept apart here.
Legend:
HEK293 cells = assay: Protection against thapsigargin (TG)-induced cell death, HEK293; assay type: cell-based, human; details: compound 20 μM; thapsigargin 15 μM; 24 hrs
Protocol: (§1) Protection against Thapsigargin (TG)-induced Cell-death. Human embryonic kidney (HEK293) cells were grown in Dulbecco's Modified Eagle's Medium (DMEM) with 10% FBS and 1% antibiotic antimycotic solution (ABAM). Mouse neuroblastoma (N2a) cells were grown in 1:1 DMEM:OPTI-MEM® with 5% FBS and 1% ABAM. All cells were grown in 10% CO2 in a humidified environment of the incubator. Cells grown in 96-well plates were exposed to a test compound (20 μM) for 2 hrs before addition of thapsigargin (15 μM for HEK293 cells and 1 μM for N2a cells) to induce ER stress. After incubation in cell-culture incubator for 24 hrs, ALAMARBLUE® regent (10% v/v) was added to the wells. Fluorescence reading was taken 2 hrs after the addition of the ALAMARBLUE® regent. Cell-viability was calculated as a percentage of relative fluorescence unit (RFU) compared to control.
(§2) The results are summarized in Table 2, where A represents a value greater than 50% cell rescue, B represents a value between 10% to 50% cell rescue, C represents a value between 1% to 10% cell rescue, and D represents a value no greater than 1% cell rescue.

N2a cells [1] = assay: Protection against thapsigargin (TG)-induced cell death, N2a; assay type: cell-based, mouse; details: compound 20 μM; thapsigargin 1 μM; 24 hrs
Protocol: as §1, §2

N2a cells [2] = assay: Protection against hydrogen peroxide-induced cell death, N2a; assay type: cell-based, mouse; details: compound 40 μM; hydrogen peroxide 200 μM
Protocol: Protection against Hydrogen Peroxide-induced Cell-death. N2a cells grown in 96-well plates were exposed to a test compound (40 μM) for 2 hrs before addition of hydrogen peroxide (200 μM). After 40 min of incubation with hydrogen peroxide, ALAMARBLUE® regent (10% v/v) was added to the wells. Fluorescence reading was taken 2 hrs after the addition of the ALAMARBLUE® regent. Cell-viability was calculated as a percentage of relative fluorescence unit (RFU) compared to control.
as §2

SERCA (SR vesicles) = assay: Activation of SERCA, increase in Vmax; assay type: biochemical
CSM14.1 cells = assay: ER stress cell survival assay (thapsigargin); assay type: cell-based; details: for Cell Survival: compound 2 μM, about 15 μM thapsigargin, CSM14.1 cells;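 on cell survival: survival read as CellTiter-Glo luminescence after overnight incubation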
Protocol: ER Stress Cell Survival Assay
CSM14.1 cells were maintained in Complete Medium at 32° C.; wherein the Complete Medium contained Dulbecco's modified eagle medium (DMEM) with 10% fetal bovine serum (FSB), 1% L-glutamine, 100 IU/mL penicillin, and 100 μg/mL streptomycin. The cells were recovered from cultures by trypsinization and then seeded in 384 well plates (Greiner #781098) at a concentration of 1,000 cells/well in 20 μL of DMEM Assay Medium, wherein the DMEM Assay Medium contained 2% FBS, 100 IU/mL penicillin, and 100 μg/mL streptomycin. Seeding was performed using a MultiDrop Combi reagent broadcaster. The plates were incubated overnight at 32° C.
A test compound was prepared by 2-fold serial dilution in 100% DMSO using a BIOMEK® 2000 liquid handler (Beckman Coulter). A dose-response curve containing 10 concentrations of the test compound was obtained. Using a BIOMEK® FX liquid handler (Beckman Coulter), 2.5 μL of the test compound was transferred from the 100% DMSO serial dilution plate to an intermediate plate containing 47.5 μL of DMEM Assay Medium containing 2% FBS, 100 IU/mL penicillin, and 100 μg/mL streptomycin and mixed. To reduce or eliminate the interference from the compound's precipitation, 6 μL of the diluted compound was immediately transferred to the assay plate to achieve a high compound concentration of 100 μM in 99% DMEM Assay Medium and 1% DMSO. After the assay plates were incubated for 2 hrs, 4 μL of 112.5 μM thapsigargin (TG) (DMSO stock diluted into Assay TC Medium) was dispensed into each testing well with a MultiDrop Combi reagent broadcaster for a final concentration of about 15 μM TG. The tissue culture media (4 μL) containing vehicle only was transferred manually to each control cell using a 16 channel electronic pipette. […] High luminescence indicates cell survival.
Alternatively, a test compound was tested at a single compound concentration (e.g., 2 μM) to determine the effect of the compound on cell survival in comparison with vehicle.

human islet microtissues = assay: Protection of human pancreatic islets under cytokine stress; assay type: cell-based; details: 168 h, compound 5 μM, cytokine cocktail IL1-β, IFN-γ, TNF-α, 7 days, read-out: increase in viability over baseline (total ATP content)
Protocol: Human pancreatic islet microtissues treated with cytokines were used to model the conditions of Type 1 Diabetes in vitro. This study tested the effects of compounds on […] viability in human islets under cytokine stress. The model consisted of human islet microtissues from an HLA-A2 positive donor grown and separated in a 96-well plate (1 microtissue per well). The microtissues were treated for 7 days with a cocktail of cytokines (IL1-β 5 ng/mL, IFN-γ 25 ng/mL, TNF-α 25 ng/mL) and compound (5 μM) or vehicle. There were 6 microtissues treated per compound or vehicle. At day 7, the total ATP content was measured using CellTiter-Glo (Promega).

[3] = Pharmacokinetics in Sprague Dawley rats; assay type: in vivo, rat; details: rat; for AUC(0-t): read-out: AUC0-t; for MRT inf: read-out: MRT0-∞; for F: PO 10 mg/kg vs IV 2 mg/kg
Protocol: Blood was drawn at 5 min, 15 min, 30 min, 1 hr, 2 hrs, 4 hrs, 6 hrs, and 8 hrs into EDTA containing tubes and plasma was harvested by centrifugation. Plasma (25 μL) was treated with acetonitrile (125 μL) containing an internal standard. The sample was then centrifuged for 5 min at 4,000 rpm in a tabletop centrifuge and the filtrate was collected. The filtrate was injected onto a Thermo Betasil C18 HPLC column 5 (50×2.1 mm). Mobile Phase A was water with 0.1% formic acid. Mobile Phase B was acetonitrile with 0.1% formic acid. […] An API Sciex 4000 equipped with a turbo ion spray source was used for all analytical measurements. A positive ion MRM method was developed. Peak areas of the product ion were measured against the peak areas of the internal standard. Data was fit using WinNonLin (Pharsight Corporation, Mountain View, CA).

[4] = Sprague Dawley, in vivo, IV 2 mg/kg
[5] = Sprague Dawley, in vivo, PO 10 mg/kg

COc1ccc(C(=O)Nc2cccc3ccc(C)nc23)cc1 [Compound A8, 4-Methoxy-N-(2-methylquinolin-8-yl)benzamide]
HEK293 Cells (TG-induced) cell rescue (HEK293 cells): A (A represents a value greater than 50% cell rescue)
N2a Cells (TG-induced) cell rescue (N2a cells [1]): B (B represents a value between 10% to 50% cell rescue)
N2a Cells (H2O2-induced) cell rescue (N2a cells [2]): B (B represents a value between 10% to 50% cell rescue)
Increase in Vmax at 10 μM (SERCA (SR vesicles)): C′ (C′ represents an increase no greater than 20%)

N#Cc1cccc(C(=O)Nc2cccc3cccnc23)c1 [Compound B3, 3-Cyano-N-(quinolin-8-yl)benzamide]
HEK293 Cells (TG-induced) cell rescue (HEK293 cells): A (A represents a value greater than 50% cell rescue)
N2a Cells (TG-induced) cell rescue (N2a cells [1]): B (B represents a value between 10% to 50% cell rescue)
N2a Cells (H2O2-induced) cell rescue (N2a cells [2]): B (B represents a value between 10% to 50% cell rescue)
Increase in Vmax at 10 μM (SERCA (SR vesicles)): C′ (C′ represents an increase no greater than 20%)

Cc1ccc2cccc(NC(=O)c3ccccc3C(F)(F)F)c2n1 [Compound C5, 2-Trifluoromethyl-N-(2-methylquinolin-8-yl)benzamide]
Cell Survival (CSM14.1 cells): B (B represents a value between 10% and 50%)
HEK293 Cells (TG-induced) cell rescue (HEK293 cells): A (A represents a value greater than 50% cell rescue)
N2a Cells (TG-induced) cell rescue (N2a cells [1]): A (A represents a value greater than 50% cell rescue)
N2a Cells (H2O2-induced) cell rescue (N2a cells [2]): B (B represents a value between 10% to 50% cell rescue)
Increase in Vmax at 10 μM (SERCA (SR vesicles)): B′ (B′ represents an increase between 20 to 50%)

Cc1ccc2cccc(NC(=O)c3ccc(C#N)cc3)c2n1 [Compound B4, 4-Cyano-N-(2-methylquinolin-8-yl)benzamide]
HEK293 Cells (TG-induced) cell rescue (HEK293 cells): A (A represents a value greater than 50% cell rescue)
N2a Cells (TG-induced) cell rescue (N2a cells [1]): B (B represents a value between 10% to 50% cell rescue)
N2a Cells (H2O2-induced) cell rescue (N2a cells [2]): B (B represents a value between 10% to 50% cell rescue)

Cc1ccc(C(=O)Nc2cccc3ccc(C)nc23)c(Cl)c1 [Compound A17, 2-Chloro-4-methyl-N-(2-methylquinolin-8-yl)benzamide]
EC50 (CSM14.1 cells; dose-response): 20 to 100 µM
viability at 5 µM (human islet microtissues): 10 to 20%
Increase in Vmax at 10 μM (SERCA (SR vesicles)): A′ (A′ represents an increase greater than 50%)
AUC(0-inf) [3, 4]: 381 ± 66 ng·h/mL
Cmax [3, 4]: 4420 ± 640 nM
Tmax [3, 4]: 1.2 min
half-life [3, 4]: 54 min
AUC(0-t) [3, 4]: 380 ± 66 ng·h/mL
MRT inf [3, 4]: 35.4 min
Vd ([3]; Sprague Dawley, in vivo, IV 2 mg/kg, read-out: Vz): 7.01 L/kg
AUC(0-inf) [3, 5]: 587 ± 120 ng·h/mL
Cmax [3, 5]: 1690 ± 740 nM
Tmax [3, 5]: 15 min
AUC(0-t) [3, 5]: 583 ± 119 ng·h/mL
MRT inf [3, 5]: 67.8 min
F [3]: 31%

COc1c(C)cccc1C(=O)Nc1cccc2ccc(C)nc12 [Compound A19, 2-Methoxy-3-methyl-N-(2-methylquinolin-8-yl)benzamide]
viability at 5 µM (human islet microtissues): 20 to 50%
Increase in Vmax at 10 μM (SERCA (SR vesicles)): A′ (A′ represents an increase greater than 50%)
AUC(0-inf) [3, 4]: 309 ± 17 ng·h/mL
Cmax [3, 4]: 3850 ± 460 nM
Tmax [3, 4]: 1.2 min
clearance [3, 4]: 0.167 mL/min/kg
half-life [3, 4]: 27 min
AUC(0-t) [3, 4]: 299 ± 17 ng·h/mL
MRT inf [3, 4]: 27.6 min
AUC(0-inf) [3, 5]: 385 ± 99 ng·h/mL
Cmax [3, 5]: 1250 ± 400 nM
Tmax [3, 5]: 19.8 min
half-life [3, 5]: 26.4 min
AUC(0-t) [3, 5]: 375 ± 105 ng·h/mL
MRT inf [3, 5]: 45 min
F [3]: 25%

Cc1ccc2cccc(NC(=O)c3ccc(C(F)(F)F)cc3)c2n1 [Compound C10, 4-Trifluoromethyl-N-(2-methylquinolin-8-yl)benzamide]
Cell Survival (CSM14.1 cells): D (D represents a value no greater than 1%)
HEK293 Cells (TG-induced) cell rescue (HEK293 cells): A (A represents a value greater than 50% cell rescue)
N2a Cells (TG-induced) cell rescue (N2a cells [1]): B (B represents a value between 10% to 50% cell rescue)
N2a Cells (H2O2-induced) cell rescue (N2a cells [2]): B (B represents a value between 10% to 50% cell rescue)

Source: US11890279B2, “Quinolines that modulate SERCA and their use for treating disease” (Neurodon Corporation, priority 2020, dated 2024)
